# Laboratory results taken from PMC12136031 (Science Advances, 2025).
# Where two headings read alike, the source gives them in different places.
# What was measured:
# ADRB1 = target: T1, ADRB1 (Homo sapiens, UniProt P08588); experiment: Safety47 cAMP ADRB1; assay type: cell-based; conditions: for Emax: read-out: Max Response; for EC50: read-out: RC50 (EC50); for IC50: read-out: RC50 (IC50)
# T1 construct: purchased Eurofins Panlab Safety47 Safety Scan
# SERT = target: T2, SERT (Homo sapiens, UniProt P31645); experiment: Safety47 Transporter SERT; assay type: cell-based; conditions: Blocker; for Emax: read-out: Max Response; for IC50: read-out: RC50 (IC50)
# T2 construct: purchased Eurofins Panlab Safety47 Safety Scan
# T2 sequence (P31645 whole entry): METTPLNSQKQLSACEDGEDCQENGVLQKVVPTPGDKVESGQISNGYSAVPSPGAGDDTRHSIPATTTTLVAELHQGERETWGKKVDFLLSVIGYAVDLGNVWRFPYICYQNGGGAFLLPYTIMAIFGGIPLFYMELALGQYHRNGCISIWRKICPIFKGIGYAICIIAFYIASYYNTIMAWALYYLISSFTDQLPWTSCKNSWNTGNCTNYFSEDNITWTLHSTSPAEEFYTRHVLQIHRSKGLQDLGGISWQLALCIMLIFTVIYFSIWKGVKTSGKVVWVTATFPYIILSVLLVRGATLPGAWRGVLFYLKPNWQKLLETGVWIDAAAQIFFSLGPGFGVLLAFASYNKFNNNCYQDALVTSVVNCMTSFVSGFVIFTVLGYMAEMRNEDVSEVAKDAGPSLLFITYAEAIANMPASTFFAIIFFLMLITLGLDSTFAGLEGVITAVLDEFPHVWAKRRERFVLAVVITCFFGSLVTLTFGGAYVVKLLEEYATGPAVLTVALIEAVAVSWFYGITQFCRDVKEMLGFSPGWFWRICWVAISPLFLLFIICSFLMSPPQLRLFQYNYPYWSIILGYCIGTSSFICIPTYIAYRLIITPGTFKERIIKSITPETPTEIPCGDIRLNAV
# DCAF7 = DCAF7 (Homo sapiens, UniProt P61962); experiment: Microscale thermophoresis (MST) of DCAF7 and BC18630; conditions: read-out: Kd (MST binding coefficient)
# Sequence of DCAF7 (P61962 whole entry): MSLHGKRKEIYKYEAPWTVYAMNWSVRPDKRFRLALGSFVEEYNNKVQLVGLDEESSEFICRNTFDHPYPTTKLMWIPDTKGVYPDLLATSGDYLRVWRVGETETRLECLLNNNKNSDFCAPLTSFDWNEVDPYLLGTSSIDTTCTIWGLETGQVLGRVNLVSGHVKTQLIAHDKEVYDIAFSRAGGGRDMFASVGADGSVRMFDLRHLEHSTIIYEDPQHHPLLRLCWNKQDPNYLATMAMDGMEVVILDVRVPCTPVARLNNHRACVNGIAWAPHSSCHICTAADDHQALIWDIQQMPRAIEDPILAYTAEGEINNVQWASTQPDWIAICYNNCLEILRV
# [1] = tested on: TFEB transcriptional targets; experiment: RNA-seq of DCAF7 inhibitor-treated BEAS-2B cells; assay type: cell-based, human; conditions: 3 μM, 18 hours
# lysosomal pH = experiment: Lysosomal pH (lysosensor yellow/blue) in OC43-infected BEAS-2B cells; assay type: cell-based, human; conditions: OC43 7 hours, 18 hours pretreatment, 100 nM
# SARS-CoV-2 = experiment: In vivo hamster SARS-CoV-2 infection assay; design: species or system Syrian golden hamster
# [2] = tested on: SARS-CoV-2 (USA-WA-1/2020); assay type: in vivo, K18-hACE2 mice; conditions: for Survival (mice survived): BID thereafter, until day 10
# [3] = tested on: hepatic endolysosomal capacity; experiment: Murine model of hepatic lysosomal activity (dextran cascade blue uptake); assay type: in vivo, C57BL/6 mice; conditions: 50 mg/kg i.p. daily for 4 days
# Vero E6 cells = conditions: read-out: Cytotoxicity CC50 Vero E6 MEM
# in vitro = conditions: African green monkey
# T1 sequence (P08588 whole entry): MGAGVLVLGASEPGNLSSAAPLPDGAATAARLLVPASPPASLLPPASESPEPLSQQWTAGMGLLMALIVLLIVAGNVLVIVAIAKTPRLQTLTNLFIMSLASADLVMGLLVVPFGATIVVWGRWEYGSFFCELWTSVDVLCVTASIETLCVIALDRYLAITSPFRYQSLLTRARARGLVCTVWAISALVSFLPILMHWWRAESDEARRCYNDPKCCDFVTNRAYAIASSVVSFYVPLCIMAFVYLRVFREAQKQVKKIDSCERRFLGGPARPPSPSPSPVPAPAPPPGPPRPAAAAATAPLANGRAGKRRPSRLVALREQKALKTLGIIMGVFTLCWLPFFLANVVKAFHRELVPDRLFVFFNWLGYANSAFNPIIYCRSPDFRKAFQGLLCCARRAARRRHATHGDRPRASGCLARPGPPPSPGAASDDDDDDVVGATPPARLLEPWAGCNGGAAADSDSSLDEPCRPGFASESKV
compound,measurement,setting,value
"Cl.Fc1cc(Nc2nc(-c3ccncc3)nc3ncccc23)cc2cc[nH]c12 [BC18813, N-(7-fluoro-1H-indol-5-yl)-2-pyridin-4-ylpyrido[2,3-d]pyrimidin-4-amine hydrochloride]",Emax,ADRB1; Agonist,2.22%
same,EC50,ADRB1; Agonist,> 10 µM
same,Emax,ADRB1; Antagonist,42.9%
same,IC50,ADRB1; Antagonist,> 10 µM
same,Emax,SERT,0%
same,IC50,SERT,> 10 µM
"Cl.c1ccc2c(Nc3ccc4[nH]ccc4c3)nc(-c3ccncc3)nc2c1 [BC18630, N-1H-indol-5-yl-2-pyridin-4-ylquinazolin-4-amine hydrochloride]",Kd,DCAF7,~4.38 µM
same,Transcripts previously identified as TFEB transcriptional targets,[1],notable increase
same,Virally induced lysosomal alkalization (lysosomal pH),lysosomal pH,inhibited this virally induced alkalization
same,NP-positive epithelial staining (IHC of lung slices),SARS-CoV-2; 4 dpi,notably reduced
same,Observed levels of lung injury,SARS-CoV-2; H&E histology,mitigated
same,Lung viral load reduction,"SARS-CoV-2; higher dose (50 mg/kg oral BID), 4 and 6 dpi",> 90%
same,Lung viral titer (PFU),"SARS-CoV-2; oral BID 20 and 50 mg/kg, all time points (2, 4, 6 dpi)",dose-dependently reduced
same,Viral titer in mouse lungs,"[2]; 3 dpi, both treatments (pre and post), 40 mg/kg oral BID",substantialy decreased
same,TFEB IHC signal in the airways,"[2]; mouse lung, 6 dpi",increase
same,Survival (mice survived),[2]; post-treat: 40 mg/kg 12 hours after infection,2/5
same,Survival (mice survived),[2]; pre-treat: 40 mg/kg 24 hours before infection,3/5
same,Mouse hepatic endolysosomal capacity,[3],increased
same,Emax,ADRB1; Agonist,0.54%
same,EC50,ADRB1; Agonist,> 10 µM
same,Emax,ADRB1; Antagonist,44.8%
same,IC50,ADRB1; Antagonist,> 10 µM
same,Emax,SERT,0%
same,IC50,SERT,> 10 µM
same,CC50,Vero E6 cells,> 10 µM
same,CC50,in vitro,> 10 µM
